The values below come from ChEMBL document CHEMBL1909046, “DrugMatrix in vitro pharmacology data”.

Data set [1] is described as follows: DRUGMATRIX: Atrial Natriuretic Factor (ANF) radioligand binding (ligand: [125I] ANF (rat)). Format: cell membranes, Cavia porcellus, Dunkin-Hartley, Adrenal gland, Membrane. The conditions noted are these: Not Active = under 50% inhibition at 10 µM.
A short description of data set [2]: DRUGMATRIX: Glutamate, NMDA, Agonism radioligand binding (ligand: [3H] CGP-39653). The conditions noted are these: Not Active = under 50% inhibition at 10 µM. Format: cell membranes, Rattus norvegicus, Wistar, Cerebral cortex, Membrane.
The target of a further data set is T1, Thromboxane-A synthase (Homo sapiens, UniProt P24557).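 Note: enzyme inhibition assay with PGH2 supplied as substrate; in other assays of this panel Not Active means under 50% inhibition at 10 µM.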
T1 sequence (P24557 whole entry): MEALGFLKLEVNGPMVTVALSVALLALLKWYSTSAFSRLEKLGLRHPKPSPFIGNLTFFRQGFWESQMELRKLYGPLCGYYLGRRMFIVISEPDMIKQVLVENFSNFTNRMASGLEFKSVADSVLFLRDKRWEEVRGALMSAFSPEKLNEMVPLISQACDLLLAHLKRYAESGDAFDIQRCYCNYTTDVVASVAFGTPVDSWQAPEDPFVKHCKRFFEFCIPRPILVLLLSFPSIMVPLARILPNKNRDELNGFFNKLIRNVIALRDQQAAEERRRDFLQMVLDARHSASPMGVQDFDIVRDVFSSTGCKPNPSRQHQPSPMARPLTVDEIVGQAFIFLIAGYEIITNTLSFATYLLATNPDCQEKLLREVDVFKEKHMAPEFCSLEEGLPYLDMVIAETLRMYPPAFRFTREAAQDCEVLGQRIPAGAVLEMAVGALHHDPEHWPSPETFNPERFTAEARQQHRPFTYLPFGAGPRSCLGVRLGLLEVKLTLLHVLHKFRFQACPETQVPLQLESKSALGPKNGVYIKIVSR
Description: biochemical. The conditions noted are these: platelet. It is filed as tissue-based, Platelet.

The target of another data set is Adenosine receptor A2a (Homo sapiens, UniProt P29274). Description: DRUGMATRIX: Adenosine A2A radioligand binding (ligand: […]). Format: cell membranes, HEK293, Membrane. As to conditions: hek293; Not Active = under 50% inhibition at 10 µM.
Data set [3] concerns the target Sigma non-opioid intracellular receptor 1 (Homo sapiens, UniProt Q99720). Description: DRUGMATRIX: Sigma1 radioligand binding (ligand: [3H] Haloperidol). As to conditions: jurkat; Not Active = under 50% inhibition at 10 µM. Format: cell membranes, Jurkat, Membrane.
In data set [4] the target is Sodium-dependent noradrenaline transporter (Homo sapiens, UniProt P23975). Description: DRUGMATRIX: Norepinephrine Transporter radioligand binding (ligand: [125I] RTI-55). As to conditions: Not Active = under 50% inhibition at 10 µM; for IC50: mdck. It is filed as cell membranes, MDCK, Membrane.
The target in data set [5] is T2, Receptor-type tyrosine-protein phosphatase C (Homo sapiens, UniProt P08575).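 Note: inhibition of CD45 enzyme activity measured using DiFMUP as substrate; in other assays of this panel Not Active means under 50% inhibition at 10 µM.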
T2 sequence (P08575 whole entry): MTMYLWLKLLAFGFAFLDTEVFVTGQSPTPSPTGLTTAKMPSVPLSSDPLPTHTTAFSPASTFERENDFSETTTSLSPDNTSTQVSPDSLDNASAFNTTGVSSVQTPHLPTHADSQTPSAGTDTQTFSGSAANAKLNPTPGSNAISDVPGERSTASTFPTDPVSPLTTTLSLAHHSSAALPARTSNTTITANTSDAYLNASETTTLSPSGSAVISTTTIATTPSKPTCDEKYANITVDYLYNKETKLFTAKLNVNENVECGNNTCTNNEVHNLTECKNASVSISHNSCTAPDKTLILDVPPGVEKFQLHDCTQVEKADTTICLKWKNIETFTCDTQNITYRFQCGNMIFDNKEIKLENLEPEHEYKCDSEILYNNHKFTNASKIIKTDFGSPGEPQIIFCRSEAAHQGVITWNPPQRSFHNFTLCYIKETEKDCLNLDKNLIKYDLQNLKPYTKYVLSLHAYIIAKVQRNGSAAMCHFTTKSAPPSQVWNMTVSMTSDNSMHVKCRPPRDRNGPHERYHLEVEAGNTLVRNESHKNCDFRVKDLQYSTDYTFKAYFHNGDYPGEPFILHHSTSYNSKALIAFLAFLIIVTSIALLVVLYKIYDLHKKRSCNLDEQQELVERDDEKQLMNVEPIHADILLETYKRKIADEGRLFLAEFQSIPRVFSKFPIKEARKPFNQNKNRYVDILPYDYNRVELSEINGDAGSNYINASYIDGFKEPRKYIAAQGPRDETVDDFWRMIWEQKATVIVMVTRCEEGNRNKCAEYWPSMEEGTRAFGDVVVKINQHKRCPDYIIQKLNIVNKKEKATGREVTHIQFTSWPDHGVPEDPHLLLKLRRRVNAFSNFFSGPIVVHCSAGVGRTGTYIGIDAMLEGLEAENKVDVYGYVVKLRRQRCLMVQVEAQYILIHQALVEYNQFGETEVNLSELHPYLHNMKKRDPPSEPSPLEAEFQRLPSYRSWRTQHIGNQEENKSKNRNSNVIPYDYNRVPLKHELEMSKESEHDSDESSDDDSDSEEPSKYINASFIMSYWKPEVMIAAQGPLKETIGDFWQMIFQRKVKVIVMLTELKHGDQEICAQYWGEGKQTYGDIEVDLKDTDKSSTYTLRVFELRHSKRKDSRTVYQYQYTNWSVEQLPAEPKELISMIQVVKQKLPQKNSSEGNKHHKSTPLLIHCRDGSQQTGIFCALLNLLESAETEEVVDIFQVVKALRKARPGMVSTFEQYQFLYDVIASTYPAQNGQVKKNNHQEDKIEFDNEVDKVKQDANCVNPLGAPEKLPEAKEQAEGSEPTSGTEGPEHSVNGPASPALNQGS
On the set-up: species or system Escherichia coli.

For data set [6], the target named is Voltage-gated inwardly rectifying potassium channel KCNH2 (Homo sapiens, UniProt Q12809). The conditions noted are these: hek293. Note: in other assays of this panel Not Active means under 50% inhibition at 10 µM.
The target in data set [7] is Platelet-activating factor receptor (Homo sapiens, UniProt P25105). Description: biochemical. The conditions noted are these: platelet. It is filed as tissue-based. Note: in other assays of this panel Not Active means under 50% inhibition at 10 µM.
Data set [8] deals with T3, 5-hydroxytryptamine receptor 2C (Homo sapiens, UniProt P28335).
T3 sequence (P28335 whole entry): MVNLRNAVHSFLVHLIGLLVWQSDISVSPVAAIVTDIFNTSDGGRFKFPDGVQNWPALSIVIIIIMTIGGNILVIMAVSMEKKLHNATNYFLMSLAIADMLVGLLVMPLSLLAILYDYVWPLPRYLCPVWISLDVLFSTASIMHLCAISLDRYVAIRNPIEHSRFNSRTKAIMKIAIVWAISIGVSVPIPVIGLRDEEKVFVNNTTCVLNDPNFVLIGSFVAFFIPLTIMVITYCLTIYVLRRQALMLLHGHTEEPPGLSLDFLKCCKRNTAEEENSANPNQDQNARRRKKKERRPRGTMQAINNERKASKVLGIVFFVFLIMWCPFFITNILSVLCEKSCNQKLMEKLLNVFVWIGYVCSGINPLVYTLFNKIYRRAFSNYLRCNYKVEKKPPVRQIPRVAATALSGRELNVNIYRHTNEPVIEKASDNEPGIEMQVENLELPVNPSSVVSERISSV
The data set can be described thus: DRUGMATRIX: Serotonin (5-Hydroxytryptamine) 5-HT2C radioligand binding (ligand: [3H] Mesulergine). As to conditions: Not Active = under 50% inhibition at 10 µM; for IC50: cho-k1. Format: cell membranes, CHO-K1, Membrane.

pIC50, pKi: −log10 of the molar value.

Sequence of Adenosine receptor A2a (P29274 whole entry): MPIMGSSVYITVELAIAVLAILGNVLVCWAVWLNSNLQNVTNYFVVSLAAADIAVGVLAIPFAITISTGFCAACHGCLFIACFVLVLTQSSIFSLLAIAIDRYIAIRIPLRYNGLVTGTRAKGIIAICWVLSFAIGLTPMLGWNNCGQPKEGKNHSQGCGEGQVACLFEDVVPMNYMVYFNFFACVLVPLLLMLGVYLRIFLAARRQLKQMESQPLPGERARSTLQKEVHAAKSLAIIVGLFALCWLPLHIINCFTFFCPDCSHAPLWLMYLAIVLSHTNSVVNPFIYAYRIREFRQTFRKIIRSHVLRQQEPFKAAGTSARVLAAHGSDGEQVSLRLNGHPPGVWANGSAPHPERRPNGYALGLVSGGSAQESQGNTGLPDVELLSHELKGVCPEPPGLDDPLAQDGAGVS
Sequence of Sodium-dependent noradrenaline transporter (P23975 whole entry): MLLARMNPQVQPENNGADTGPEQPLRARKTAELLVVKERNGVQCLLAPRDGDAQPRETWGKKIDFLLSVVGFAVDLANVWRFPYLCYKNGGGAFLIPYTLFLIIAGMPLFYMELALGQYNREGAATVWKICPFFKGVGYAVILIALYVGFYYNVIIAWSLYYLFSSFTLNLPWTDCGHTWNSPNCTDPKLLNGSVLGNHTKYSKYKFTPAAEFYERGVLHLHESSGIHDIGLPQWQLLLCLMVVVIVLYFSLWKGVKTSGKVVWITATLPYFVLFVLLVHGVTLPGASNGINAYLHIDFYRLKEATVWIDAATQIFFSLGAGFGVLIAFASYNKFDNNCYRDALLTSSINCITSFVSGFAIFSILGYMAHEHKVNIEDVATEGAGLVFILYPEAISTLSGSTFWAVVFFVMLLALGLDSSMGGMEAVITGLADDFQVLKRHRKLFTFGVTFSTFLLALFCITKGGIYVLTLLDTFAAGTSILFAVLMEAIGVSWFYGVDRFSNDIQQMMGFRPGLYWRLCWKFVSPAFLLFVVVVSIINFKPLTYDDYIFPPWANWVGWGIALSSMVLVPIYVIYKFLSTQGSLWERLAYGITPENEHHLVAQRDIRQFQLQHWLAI
Sequence of Voltage-gated inwardly rectifying potassium channel KCNH2 (Q12809 whole entry): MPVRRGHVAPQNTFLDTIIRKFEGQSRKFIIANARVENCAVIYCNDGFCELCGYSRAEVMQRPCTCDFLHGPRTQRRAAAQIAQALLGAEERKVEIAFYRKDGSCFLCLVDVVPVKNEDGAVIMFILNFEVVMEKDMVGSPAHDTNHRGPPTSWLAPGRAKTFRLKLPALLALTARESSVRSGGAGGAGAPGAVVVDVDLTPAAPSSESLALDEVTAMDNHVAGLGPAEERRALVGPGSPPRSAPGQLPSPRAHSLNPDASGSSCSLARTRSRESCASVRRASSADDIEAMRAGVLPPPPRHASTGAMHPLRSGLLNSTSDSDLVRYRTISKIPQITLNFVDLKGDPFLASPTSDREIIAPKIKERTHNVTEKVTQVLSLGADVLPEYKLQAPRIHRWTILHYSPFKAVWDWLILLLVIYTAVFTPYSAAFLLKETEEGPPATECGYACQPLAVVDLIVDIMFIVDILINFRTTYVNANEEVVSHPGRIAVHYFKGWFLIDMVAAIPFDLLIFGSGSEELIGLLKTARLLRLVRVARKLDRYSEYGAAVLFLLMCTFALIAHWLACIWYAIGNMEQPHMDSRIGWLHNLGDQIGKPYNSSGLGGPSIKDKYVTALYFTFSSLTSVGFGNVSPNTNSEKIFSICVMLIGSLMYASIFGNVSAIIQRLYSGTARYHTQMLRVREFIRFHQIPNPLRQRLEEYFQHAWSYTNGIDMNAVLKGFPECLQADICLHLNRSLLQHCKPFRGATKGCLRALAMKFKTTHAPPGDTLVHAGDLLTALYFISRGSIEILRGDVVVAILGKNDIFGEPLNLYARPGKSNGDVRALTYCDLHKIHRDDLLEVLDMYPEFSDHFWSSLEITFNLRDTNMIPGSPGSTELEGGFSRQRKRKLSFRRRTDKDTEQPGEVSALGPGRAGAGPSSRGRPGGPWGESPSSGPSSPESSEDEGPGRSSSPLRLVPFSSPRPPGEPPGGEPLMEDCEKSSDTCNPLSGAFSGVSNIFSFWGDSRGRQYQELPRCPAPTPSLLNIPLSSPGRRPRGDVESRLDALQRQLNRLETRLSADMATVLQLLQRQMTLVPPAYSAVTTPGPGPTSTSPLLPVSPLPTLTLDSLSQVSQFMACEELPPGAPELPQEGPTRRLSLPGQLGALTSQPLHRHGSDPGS
Sequence of Sigma non-opioid intracellular receptor 1 (Q99720 whole entry): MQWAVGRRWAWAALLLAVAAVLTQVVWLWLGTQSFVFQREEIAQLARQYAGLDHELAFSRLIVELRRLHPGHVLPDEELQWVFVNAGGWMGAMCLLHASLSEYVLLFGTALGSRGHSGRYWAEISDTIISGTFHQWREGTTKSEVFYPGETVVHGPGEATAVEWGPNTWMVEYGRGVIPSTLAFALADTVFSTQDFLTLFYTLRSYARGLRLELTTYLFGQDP
Sequence of Platelet-activating factor receptor (P25105 whole entry): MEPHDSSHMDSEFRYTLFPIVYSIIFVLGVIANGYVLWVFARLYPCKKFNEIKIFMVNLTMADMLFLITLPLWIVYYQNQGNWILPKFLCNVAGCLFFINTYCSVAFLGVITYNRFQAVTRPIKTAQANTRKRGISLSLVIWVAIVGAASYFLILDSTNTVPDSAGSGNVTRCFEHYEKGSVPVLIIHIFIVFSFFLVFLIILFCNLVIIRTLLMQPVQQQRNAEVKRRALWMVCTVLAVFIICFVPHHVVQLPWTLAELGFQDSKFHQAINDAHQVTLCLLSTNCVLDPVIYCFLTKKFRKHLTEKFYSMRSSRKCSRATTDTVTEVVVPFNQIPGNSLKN

In the case of `C=C1C(=O)O[C@@H]2C3O[C@]3(C)CC/C=C(\C)CC[C@@H]12` (some centres not stated), the IC50 entry (in data set [1]; in data set [2]; against Thromboxane-A synthase; at Adenosine receptor A2a; in data set [3]; in data set [4]) was “Not Active” in each case. Besides, the IC50 result in [5], in data set [6], in data set [7] and in [8] was “Not Active” throughout. The Ki entry in data set [1], in [2] and in [6] was “Not Active” throughout.
Turning to `CCCCCCCCCc1ccc(O)cc1` [4-NONYLPHENOL], the IC50 entry (in data set [1]; in data set [2]; against Thromboxane-A synthase; at Adenosine receptor A2a; in [3]; in data set [5]) was “Not Active” in each case. Moreover, the IC50 entry in [6] and in [7] was “Not Active” throughout. Further, the Ki result in data set [1], in data set [2] and in [6] was “Not Active” in each case. Moreover, the pIC50 in [4] (read-out: IC50) is 5.90; in data set [8] (read-out: IC50), 5.59. In addition, the negative logarithm of the Ki (pKi) in [4] (read-out: Ki) is 5.91; in data set [8] (read-out: Ki) it was 5.87.
For `COc1ccc2c(c1)c(CC(=O)OCC(=O)O)c(C)n2C(=O)c1ccc(Cl)cc1` [ACEMETACIN], the IC50 entry (in [1]; in data set [2]; on Thromboxane-A synthase; at Adenosine receptor A2a; in data set [3]; in data set [4]) was “Not Active” throughout. Besides, the IC50 entry in data set [5], in data set [6], in data set [7] and in data set [8] was “Not Active” in each case. Also, the Ki entry in [1], in [2] and in [6] was “Not Active” each time.
As for `CCCSc1ccc2nc(NC(=O)OC)[nH]c2c1` [ALBENDAZOLE], the IC50 result (in [1]; in [2]; on Thromboxane-A synthase; on Adenosine receptor A2a; in data set [3]; in [4]) was “Not Active” in each case. Also, the IC50 result in [5], in data set [6], in data set [7] and in data set [8] was “Not Active” each time. Moreover, the Ki entry in data set [1], in data set [2] and in data set [6] was “Not Active” each time.
Take `Cc1[nH]cnc1CN1CCc2c(c3ccccc3n2C)C1=O` [ALOSETRON]: the IC50 entry (in data set [1]; in [2]; against Thromboxane-A synthase; on Adenosine receptor A2a; in [3]; in data set [4]) was “Not Active” throughout. For the same molecule, the IC50 entry in data set [5], in data set [6], in [7] and in data set [8] was “Not Active” each time. Besides, the Ki entry in [1], in [2] and in data set [6] was “Not Active” throughout.

A word on the pIC50: it is the negative decadic logarithm of the IC50, by convention in mol/L. Usually pKi stands for −log10 of the Ki, conventionally taken in molar units.
